In ChEMBL document CHEMBL3045592, “Studies of O,O-dimethyl α-(2,4-dichlorophenoxyacetoxy)ethylphosphonate (HW02) as a new herbicide. 1. Synthesis and herbicidal activity of HW02 and analogues as novel inhibitors of pyruvate dehydrogenase complex” (J Agric Food Chem, 2011):

What was measured:
Assay type in all cases: functional
[1] = system: Medicago sativa; experiment: Post-emergence herbicidal activity against Medicago sativa (alfalfa) assessed as growth inhibition at 1500 ai g/ha after 20 days by green house test
[2] = system: Amaranthus retroflexus; experiment: Post-emergence herbicidal activity against Amaranthus retroflexus assessed as growth inhibition at 1500 ai g/ha after 20 days by green house test
[3] = system: Brassica rapa subsp. oleifera; experiment: Post-emergence herbicidal activity against Brassica rapa subsp. oleifera Si Yue Man assessed as growth inhibition at 1500 ai g/ha after 20 days by green house test
[4] = system: Digitaria sanguinalis; experiment: Post-emergence herbicidal activity against Digitaria sanguinalis (hairy crabgrass) assessed as growth inhibition at 1500 ai g/ha after 20 days by green house test
[5] = system: Echinochloa crus-galli; experiment: Post-emergence herbicidal activity against Echinochloa crus-galli (barnyard grass) assessed as growth inhibition at 1500 ai g/ha after 20 days by green house test
[6] = system: Medicago sativa; experiment: Pre-emergence herbicidal activity against Medicago sativa (alfalfa) assessed as growth inhibition at 1500 ai g/ha after 20 days by green house test
[7] = system: Amaranthus retroflexus; experiment: Pre-emergence herbicidal activity against Amaranthus retroflexus assessed as growth inhibition at 1500 ai g/ha after 20 days by green house test
[8] = system: Brassica rapa subsp. oleifera; experiment: Pre-emergence herbicidal activity against Brassica rapa subsp. oleifera Si Yue Man assessed as growth inhibition at 1500 ai g/ha after 20 days by green house test
[9] = system: Digitaria sanguinalis; experiment: Pre-emergence herbicidal activity against Digitaria sanguinalis (hairy crabgrass) assessed as growth inhibition at 1500 ai g/ha after 20 days by green house test
[10] = system: Echinochloa crus-galli; experiment: Pre-emergence herbicidal activity against Echinochloa crus-galli (barnyard grass) assessed as growth inhibition at 1500 ai g/ha after 20 days by green house test

SMILES | growth inhibition (GI) [1] | growth inhibition (GI) [2] | growth inhibition (GI) [3] | growth inhibition (GI) [4] | growth inhibition (GI) [5] | growth inhibition (GI) [6] | growth inhibition (GI) [7] | growth inhibition (GI) [8] | growth inhibition (GI) [9] | growth inhibition (GI) [10]
COP(=O)(OC)C(OC(=O)COc1cccc(F)c1)c1cccc([N+](=O)[O-])c1 (stereo not given) | <=50% | <=50% | <=50% | <=50% | <=50% | <=50% | <=50% | <=50% | <=50% | <=50%
COP(=O)(OC)C(OC(=O)COc1ccc(F)c(Cl)c1)c1ccccc1 (stereo not given) | 50% | 75% | 75% | <=50% | 50% | 75% | 90% | 90% | 90% | 75%
COP(=O)(OC)C(C)OC(=O)COc1ccc(F)c(Cl)c1 (stereo not given) | 75% | 75% | 75% | <=50% | <=50% | 75% | <=50% | <=50% | 50% | 50%
COP(=O)(OC)C(OC(=O)COc1ccc(F)cc1F)c1cccc([N+](=O)[O-])c1 (stereo not given) | 50% | 75% | 75% | 50% | <=50% | 50% | <=50% | <=50% | 50% | <=50%
COP(=O)(OC)C(OC(=O)COc1cccc(C)c1C)c1ccccc1 (stereo not given) | 50% | <=50% | 75% | <=50% | 50% | 75% | 50% | 90% | <=50% | 75%
COP(=O)(OC)C(OC(=O)COc1cccc(C)c1)c1ccccc1 (stereo not given) | 50% | 50% | 50% | <=50% | <=50% | 75% | 75% | 75% | <=50% | <=50%
COP(=O)(OC)C(OC(=O)COc1ccc(C(F)(F)F)cc1)c1cccc([N+](=O)[O-])c1 (stereo not given) | <=50% | 50% | <=50% | <=50% | <=50% | <=50% | <=50% | <=50% | <=50% | <=50%
COP(=O)(OC)C(C)OC(=O)COc1ccc(Cl)cc1 (stereo not given) | 50% | 90% | 75% | <=50% | <=50% | 90% | 90% | 90% | 90% | 90%
COP(=O)(COC(=O)COc1ccccc1)OC [(DIMETHOXYPHOSPHORYL)METHYL 2-PHENOXYACETATE] | <=50% | <=50% | <=50% | <=50% | <=50% | <=50% | <=50% | <=50% | <=50% | <=50%
COP(=O)(OC)C(OC(=O)COc1ccc(Cl)c(C)c1)c1cccc([N+](=O)[O-])c1 (stereo not given) | 75% | 75% | <=50% | <=50% | <=50% | 75% | 75% | 50% | 50% | <=50%
COP(=O)(OC)C(C)OC(=O)COc1ccc(F)cc1F (stereo not given) | 50% | 75% | 75% | 50% | <=50% | 50% | <=50% | <=50% | 75% | <=50%
COP(=O)(OC)C(C)OC(=O)COc1ccc(Br)cc1Br (stereo not given) | 90% | 90% | 90% | <=50% | <=50% | 75% | <=50% | <=50% | <=50% | <=50%
COP(=O)(OC)C(OC(=O)COc1ccc(F)cc1Cl)c1ccccc1 (stereo not given) | 75% | 90% | 75% | 50% | 75% | 90% | 90% | 90% | 90% | 90%
COP(=O)(OC)C(C)OC(=O)COc1ccccc1F (stereo not given) | <=50% | <=50% | <=50% | <=50% | <=50% | <=50% | <=50% | <=50% | <=50% | <=50%
COP(=O)(OC)C(OC(=O)COc1ccccc1[N+](=O)[O-])c1cccc([N+](=O)[O-])c1 (stereo not given) | <=50% | <=50% | <=50% | <=50% | <=50% | <=50% | <=50% | <=50% | <=50% | <=50%
COP(=O)(OC)C(OC(=O)COc1ccc(C(F)(F)F)cc1[N+](=O)[O-])c1ccccc1 (stereo not given) | <=50% | <=50% | <=50% | <=50% | <=50% | <=50% | <=50% | <=50% | <=50% | <=50%
